Test results from PubChem BioAssay AID1963963 (Molecular Pharmacology Branch, DTP, NCI, 2024).
Where “and” joins values, the source holds several entries; their conditions need not be identical. Equal entries are not always repeated.

Test system: 958667-338-R-J2-PDC tumor spheroids viability
Assay: Anticancer human tumor 958667-338-R-J2-PDC patient-derived colon adenocarcinoma cell line growth inhibition [PI3K]
Settings: spheroids with HUVEC and MSC; for viability, T/C: stronger effect = lower value
In short: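 Spheroid viability read-out. Co-cultures contained the tumor line plus HUVEC and human MSCs. Each agent was paired with a PI3K inhibitor (inavolisib, alpelisib, duvelisib, copanlisib) across half-log dilutions starting at clinical Cmax, or at 10 microM when Cmax was unknown.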

[1] = curve of first compound, second compound 0.0316 µM
[2] = curve of first compound, second compound 0.1 µM
[3] = curve of first compound, second compound 0.316 µM
[4] = curve of first compound, second compound 1 µM
[5] = curve of first compound, second compound 3.16 µM
[6] = curve of first compound, second compound 10 µM
[7] = second compound 0.0316 µM, first compound 0.0316 µM
[8] = second compound 0.0316 µM, first compound 0.1 µM
[9] = second compound 0.1 µM, first compound 0.0316 µM
[10] = second compound 0.1 µM, first compound 0.1 µM
[11] = second compound 0.316 µM, first compound 0.0316 µM
[12] = second compound 0.316 µM, first compound 0.1 µM
[13] = second compound 1 µM, first compound 0.0316 µM
[14] = second compound 1 µM, first compound 0.1 µM
[15] = second compound 3.16 µM, first compound 0.0316 µM
[16] = second compound 3.16 µM, first compound 0.1 µM
[17] = second compound 10 µM, first compound 0.0316 µM
[18] = second compound 10 µM, first compound 0.1 µM
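Note: spheroids exposed to compounds for seven days before readout.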

How did the IC50 [1] turn out when `CC(C)n1nc(-c2ccc3oc(N)nc3c2)c2c(N)ncnc21` + CC(Nc1ncnc2nc[nH]c12)c1cc2cccc(Cl)c2c(=O)n1-c1ccccc1 was run?
Its IC50 is 74.9 nM.

And the IC50 [2]?
Its IC50 is 71.7 nM.

What about the IC50 [3] of the same compound?
The IC50 was 77.9 nM.

What about the IC50 [4] of the same compound?
The IC50 was 82.9 nM.

And the IC50 [5]?
The IC50 was 59.3 nM.

What about the IC50 [6] of the same compound?
The IC50 was 61.4 nM.

And the viability, T/C (second compound 0.0316 µM, first compound 0.000316 µM)?
Its viability, T/C is 96.8%.

And the viability, T/C (second compound 0.0316 µM, first compound 0.001 µM)?
The viability, T/C was 95.3%.

And the viability, T/C (second compound 0.0316 µM, first compound 0.00316 µM)?
Its viability, T/C is 98.5%.

And the viability, T/C (second compound 0.0316 µM, first compound 0.01 µM)?
The viability, T/C was 112%.

What about the viability, T/C [7] of the same compound?
Its viability, T/C is 73.6%.

And the viability, T/C [8]?
The viability, T/C was 42.1%.

And the viability, T/C (second compound 0.1 µM, first compound 0.000316 µM)?
Its viability, T/C is 127%.

And the viability, T/C (second compound 0.1 µM, first compound 0.001 µM)?
The viability, T/C was 101%.

What about the viability, T/C (second compound 0.1 µM, first compound 0.00316 µM) of the same compound?
Its viability, T/C is 107%.

What about the viability, T/C (second compound 0.1 µM, first compound 0.01 µM) of the same compound?
The viability, T/C was 92.8%.

And the viability, T/C [9]?
Its viability, T/C is 74.7%.

And the viability, T/C [10]?
Its viability, T/C is 39.4%.

What about the viability, T/C (second compound 0.316 µM, first compound 0.000316 µM) of the same compound?
The viability, T/C was 95.2%.

And the viability, T/C (second compound 0.316 µM, first compound 0.001 µM)?
Its viability, T/C is 84.7%.

What about the viability, T/C (second compound 0.316 µM, first compound 0.00316 µM) of the same compound?
The viability, T/C was 90.8%.

And the viability, T/C (second compound 0.316 µM, first compound 0.01 µM)?
Its viability, T/C is 98.9%.

And the viability, T/C [11]?
The viability, T/C was 69.2%.

What about the viability, T/C [12] of the same compound?
The viability, T/C was 44.7%.

And the viability, T/C (second compound 1 µM, first compound 0.000316 µM)?
Its viability, T/C is 95.2%.

And the viability, T/C (second compound 1 µM, first compound 0.001 µM)?
Its viability, T/C is 92.8%.

And the viability, T/C (second compound 1 µM, first compound 0.00316 µM)?
The viability, T/C was 82.4%.

And the viability, T/C (second compound 1 µM, first compound 0.01 µM)?
Its viability, T/C is 100%.

And the viability, T/C [13]?
Its viability, T/C is 73.9%.

And the viability, T/C [14]?
The viability, T/C was 45.4%.

And the viability, T/C (second compound 3.16 µM, first compound 0.000316 µM)?
The viability, T/C was 86%.

What about the viability, T/C (second compound 3.16 µM, first compound 0.001 µM) of the same compound?
The viability, T/C was 91.4%.

And the viability, T/C (second compound 3.16 µM, first compound 0.00316 µM)?
The viability, T/C was 98.5%.

What about the viability, T/C (second compound 3.16 µM, first compound 0.01 µM) of the same compound?
Its viability, T/C is 89.3%.

What about the viability, T/C [15] of the same compound?
The viability, T/C was 60.7%.

And the viability, T/C [16]?
Its viability, T/C is 41.2%.

And the viability, T/C (second compound 10 µM, first compound 0.000316 µM)?
The viability, T/C was 100%.

And the viability, T/C (second compound 10 µM, first compound 0.001 µM)?
The viability, T/C was 75.1%.

What about the viability, T/C (second compound 10 µM, first compound 0.00316 µM) of the same compound?
The viability, T/C was 70.4%.

And the viability, T/C (second compound 10 µM, first compound 0.01 µM)?
Its viability, T/C is 83.5%.

And the viability, T/C [17]?
The viability, T/C was 71.8%.

And the viability, T/C [18]?
The viability, T/C was 33.7%.

With `C#Cc1c(F)ccc2cc(O)cc(-c3ncc4c(N5CC6CCC(C5)N6)nc(OCC56CCCN5CC(F)C6)nc4c3F)c12` (stereo not drawn) + CC(Nc1ncnc2nc[nH]c12)c1cc2cccc(Cl)c2c(=O)n1-c1ccccc1 as the compound, how does the IC50 [1] read?
Its IC50 is > 10000 nM.

What about the IC50 [2] of the same compound?
Its IC50 is > 10000 nM.

What about the IC50 [3] of the same compound?
Its IC50 is > 10000 nM.

What about the IC50 [4] of the same compound?
The IC50 was > 10000 nM.

And the IC50 [5]?
The IC50 was 7830 nM.

And the IC50 [6]?
Its IC50 is 8560 nM.

And the viability, T/C [7]?
The viability, T/C was 104%.

And the viability, T/C [8]?
The viability, T/C was 99.2%.

What about the viability, T/C (second compound 0.0316 µM, first compound 0.316 µM) of the same compound?
Its viability, T/C is 109%.

What about the viability, T/C (second compound 0.0316 µM, first compound 1 µM) of the same compound?
Its viability, T/C is 84.9%.

What about the viability, T/C (second compound 0.0316 µM, first compound 3.16 µM) of the same compound?
Its viability, T/C is 97.5%.

What about the viability, T/C (second compound 0.0316 µM, first compound 10 µM) of the same compound?
The viability, T/C was 69.7%.

What about the viability, T/C [9] of the same compound?
The viability, T/C was 102%.

And the viability, T/C [10]?
Its viability, T/C is 109%.

What about the viability, T/C (second compound 0.1 µM, first compound 0.316 µM) of the same compound?
Its viability, T/C is 86.8%.

And the viability, T/C (second compound 0.1 µM, first compound 1 µM)?
Its viability, T/C is 104%.

And the viability, T/C (second compound 0.1 µM, first compound 3.16 µM)?
The viability, T/C was 85.2%.

What about the viability, T/C (second compound 0.1 µM, first compound 10 µM) of the same compound?
Its viability, T/C is 77.5%.

And the viability, T/C [11]?
The viability, T/C was 84%.

And the viability, T/C [12]?
The viability, T/C was 99.3%.

What about the viability, T/C (second compound 0.316 µM, first compound 0.316 µM) of the same compound?
The viability, T/C was 93.5%.

And the viability, T/C (second compound 0.316 µM, first compound 1 µM)?
The viability, T/C was 92.8%.

What about the viability, T/C (second compound 0.316 µM, first compound 3.16 µM) of the same compound?
The viability, T/C was 93.9%.

What about the viability, T/C (second compound 0.316 µM, first compound 10 µM) of the same compound?
Its viability, T/C is 63.5%.

And the viability, T/C [13]?
Its viability, T/C is 77.4%.

And the viability, T/C [14]?
The viability, T/C was 101%.

And the viability, T/C (second compound 1 µM, first compound 0.316 µM)?
Its viability, T/C is 90.9%.

What about the viability, T/C (second compound 1 µM, first compound 1 µM) of the same compound?
The viability, T/C was 84.8%.

And the viability, T/C (second compound 1 µM, first compound 3.16 µM)?
Its viability, T/C is 106%.

And the viability, T/C (second compound 1 µM, first compound 10 µM)?
Its viability, T/C is 65.1%.

And the viability, T/C [15]?
Its viability, T/C is 91.4%.

And the viability, T/C [16]?
Its viability, T/C is 94.2%.

And the viability, T/C (second compound 3.16 µM, first compound 0.316 µM)?
The viability, T/C was 85.3%.

What about the viability, T/C (second compound 3.16 µM, first compound 1 µM) of the same compound?
Its viability, T/C is 76.5%.

And the viability, T/C (second compound 3.16 µM, first compound 3.16 µM)?
The viability, T/C was 73.2%.

What about the viability, T/C (second compound 3.16 µM, first compound 10 µM) of the same compound?
Its viability, T/C is 43.6%.

What about the viability, T/C [17] of the same compound?
Its viability, T/C is 86.3%.

And the viability, T/C [18]?
Its viability, T/C is 83.2%.

What about the viability, T/C (second compound 10 µM, first compound 0.316 µM) of the same compound?
Its viability, T/C is 73.1%.

What about the viability, T/C (second compound 10 µM, first compound 1 µM) of the same compound?
Its viability, T/C is 86.9%.

What about the viability, T/C (second compound 10 µM, first compound 3.16 µM) of the same compound?
Its viability, T/C is 71.5%.

What about the viability, T/C (second compound 10 µM, first compound 10 µM) of the same compound?
The viability, T/C was 46.4%.

`CCN1CCN(Cc2ccc(Nc3ncc(F)c(-c4cc(F)c5nc(C)n(C(C)C)c5c4)n3)nc2)CC1` was tested. Which viability, T/C (compound 0.00316 µM) did it give?
Its viability, T/C is 108% and 102% and 109%.

And the viability, T/C (compound 0.01 µM)?
The viability, T/C was 86.7% and 90.8% and 95.2%.

What about the viability, T/C (compound 0.0316 µM) of the same compound?
The viability, T/C was 91% and 87.5% and 98.1%.

And the viability, T/C (compound 0.1 µM)?
The viability, T/C was 72.1% and 75.9% and 98.9%.

And the viability, T/C (compound 0.316 µM)?
Its viability, T/C is 78.8% and 76.1% and 79.7%.

What about the viability, T/C (compound 1 µM) of the same compound?
Its viability, T/C is 74.5% and 70.1% and 72.5%.

What about the IC50 (curve of compound) of the same compound?
Its IC50 is > 1000 nM.

What does the source list for `CC(Cn1ccc(-c2ccc(C#N)c(Cl)c2)n1)NC(=O)c1cc(C(C)O)[nH]n1` (stereo not drawn)?
viability, T/C (compound 0.0316 µM): 105% [middle of 4 runs]; viability, T/C (compound 0.1 µM): 92.6% [middle of 4 runs]; viability, T/C (compound 0.316 µM): 111% [middle of 4 runs]; viability, T/C (compound 1 µM): 104% [middle of 4 runs]; viability, T/C (compound 3.16 µM): 107% [middle of 4 runs]; viability, T/C (compound 10 µM): 89.4% [middle of 4 runs]; IC50 (curve of compound): > 10000 nM
